The values that follow come from article PMC12514245, “Impaired migration and lung invasion of human melanoma by a novel small molecule targeting the transmembrane domain of death receptor p75^NTR” (EMBO Molecular Medicine, 2025).

The target in test [1] is TMD of TrkB receptor tyrosine kinase (Homo sapiens, UniProt Q16620). The experiment in a line: 2D NMR chemical shift perturbation, TrkB TMD in bicelles. It counts as binding. To be noted: 4 molar excess compound.
The target of test [2] is T1, fascin/p75^NTR interaction (Homo sapiens, UniProt P08138).
T1 construct: endogenous in cells; host or cells: A875-NT (and A875 sh-p75NTR knock-down control)
T1 sequence (P08138 29-427): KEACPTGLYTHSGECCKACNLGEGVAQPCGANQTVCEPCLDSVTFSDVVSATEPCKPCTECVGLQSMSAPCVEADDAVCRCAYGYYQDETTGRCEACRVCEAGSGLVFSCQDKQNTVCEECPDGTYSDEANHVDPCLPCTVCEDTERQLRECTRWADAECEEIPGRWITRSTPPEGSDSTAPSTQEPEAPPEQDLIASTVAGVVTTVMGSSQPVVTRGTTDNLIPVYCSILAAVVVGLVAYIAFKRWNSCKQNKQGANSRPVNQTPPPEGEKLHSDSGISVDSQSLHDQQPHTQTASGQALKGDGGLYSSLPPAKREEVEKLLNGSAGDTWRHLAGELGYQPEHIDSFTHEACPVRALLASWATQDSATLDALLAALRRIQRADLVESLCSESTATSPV
The experiment in a line: Co-immunoprecipitation of fascin with p75NTR in A875 cells. It counts as cell-based. The following applies: 1 μM; NGF 100 ng/ml. The procedure: For co-immunoprecipitation analysis of p75^NTR/fascin interactions, A875 sh-p75^NTR and A875-NT cells were plated in a 10 cm tissue culture dish at a confluency of 3 × 10^6 cells/dish in normal growth media. Twenty-four hours after plating, the cells were treated with 1 μM 4A22 and NGF (100 ng/ml) for 12 h prior to harvest and lysis in lysis buffer (50 mM Tris/HCl pH 7.5, 1 mM EDTA, 270 mM Sucrose, 1% (v/v) Triton X-100, 0.1% (v/v) 2-mercaptoethanol and 60 mM n-Octyl-β-D glucopyranoside) containing protease inhibitor cocktail. The cellular extracts were then centrifuged at 4 °C top speed on a benchtop centrifuge for 1 min and the supernatant was collected. For immunoprecipitation, A875 cell extracts were incubated for 16 h at 4 °C on a rotating wheel with 0.8 μg of anti-p75^NTR antibody (ANT-007, Alomone) and then incubated with Sepharose protein-G beads (GE Healthcare). The beads were collected by brief centrifugation (2 min, 2500 rpm, 4 °C), washed three times with 1 ml of Wash Buffer (with composition same as the lysis buffer). After the last wash, pelleted beads were aspirated off the wash buffer followed by addition of Laemmli sample buffer and analysis by SDS–PAGE followed by Western Blot using anti-fascin antibody (MA5-11483, Invitrogen).

In test [3] the target is T2, full-length p75^NTR in COS cells (Rattus norvegicus, UniProt P07174).
T2 construct: COS cells expressing full length, GFP-tagged rat p75^NTR; expressed in transfected cells; host or cells: COS-7
T2 sequence (P07174 30-425): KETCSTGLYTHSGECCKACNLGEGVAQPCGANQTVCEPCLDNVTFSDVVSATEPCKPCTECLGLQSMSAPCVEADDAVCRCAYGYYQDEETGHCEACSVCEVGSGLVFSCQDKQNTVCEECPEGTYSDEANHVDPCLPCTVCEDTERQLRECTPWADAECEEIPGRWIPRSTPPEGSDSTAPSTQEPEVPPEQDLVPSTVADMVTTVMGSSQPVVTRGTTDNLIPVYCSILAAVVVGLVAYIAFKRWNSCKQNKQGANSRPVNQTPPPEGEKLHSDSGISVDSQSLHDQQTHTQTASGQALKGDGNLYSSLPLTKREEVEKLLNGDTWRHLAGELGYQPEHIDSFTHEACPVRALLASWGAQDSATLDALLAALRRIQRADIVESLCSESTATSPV
The experiment in a line: Live cell homo-FRET anisotropy, wild-type p75NTR. It counts as cell-based. The following applies: for average anisotropy change, wt: 10 μM. More on the design: key to average anisotropy change, wt: fold change vs mean of 6 pre-treatment time points (baseline ≈ 100). The text has this:
Previous real-time homo-FRET anisotropy studies by ours as well as other laboratories have shown that the intracellular death domains of p75^NTR are associated with each other (high FRET, low anisotropy state) under basal conditions (Vilar et al, [2009]; Sykes et al, [2012]), but neurotrophin binding induces transient separation of p75^NTR death domains (low FRET, high anisotropy state) manifested as oscillations in real-time anisotropy measurements (Lin et al, [2015]; Tanaka et al, [2016]; Goh et al, [2018]). COS cells expressing full length, GFP-tagged rat p75^NTR were treated with vehicle or Div17E5 and changes in anisotropy levels were recorded over time.
Anisotropy imaging in COS-7 cells that were transfected with a rat p75^NTR-EGFP* fusion construct was done as previously described (Goh, Lin et al, [2018]). EGFP* carries a […] mutation rendering monomeric EGFP. Changes in anisotropy were expressed as fold change at each time point (every 30 s) in comparison to the mean of 6 time points obtained prior to addition of treatment. Images were acquired using Nikon Ti-E based live cell epi-fluorescence microscope and MetaMorph software and analyzed using MatLab from Mathworks.

The structures appear in SMILES notation. Entries after “also recorded” stand apart in the source; their conditions may differ.

Sequence of TMD of TrkB receptor tyrosine kinase (Q16620 419-466): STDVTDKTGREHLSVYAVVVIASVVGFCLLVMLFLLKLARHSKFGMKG

For `Cc1cccc(-c2cncc(Nc3ccc(Br)c(Cl)c3Cl)n2)c1C` [Np75-4A22], the “chemical shift perturbations, TrkB TMD” value in test [1] was “mostly non-specific interaction; also recorded: no or minimal chemical shift perturbations”. The “NGF-stimulated fascin/p75NTR interaction” value in test [2] was “completely suppressed the effect of NGF”.

Take `Oc1ccc(-c2cncc(Nc3ccc(Br)c(Cl)c3)n2)cc1` [Div17E5]: the “real-time homo-FRET anisotropy” value in test [3] (10 µM) is “induced oscillations in real-time anisotropy”. The “average anisotropy change, wt” value worked out at 106 in test [3] (0 min after compound addition); 88 in test [3] (0.5 min after compound addition); 110 in test [3] (1 min after compound addition); 101 in test [3] (1.5 min after compound addition); 115 in test [3] (2 min after compound addition); 82 in test [3] (2.5 min after compound addition). In addition, the “average anisotropy change, wt” value in test [3] (3 min after compound addition) came out at 112; in test [3] (3.5 min after compound addition), 105; in test [3] (4 min after compound addition) it was 80; in test [3] (4.5 min after compound addition) it was 111; in test [3] (5 min after compound addition) it was 83; in test [3] (5.5 min after compound addition), 99. Besides, the “average anisotropy change, wt” value in test [3] (6 min after compound addition) turned out to be 121; in test [3] (6.5 min after compound addition), 122; in test [3] (7 min after compound addition), 100; in test [3] (7.5 min after compound addition), 100; in test [3] (8 min after compound addition) it was 74; in test [3] (8.5 min after compound addition), 96. In addition, the “average anisotropy change, wt” value in test [3] (9 min after compound addition) came to 96; in test [3] (9.5 min after compound addition) it was 103; in test [3] (10 min after compound addition), 99; in test [3] (10.5 min after compound addition) it was 110; in test [3] (11 min after compound addition), 95; in test [3] (11.5 min after compound addition), 89. In addition, the “average anisotropy change, wt” value came to 110 in test [3] (12 min after compound addition); 95 in test [3] (12.5 min after compound addition); 108 in test [3] (13 min after compound addition); 110 in test [3] (13.5 min after compound addition); 100 in test [3] (14 min after compound addition); 105 in test [3] (14.5 min after compound addition). The “average anisotropy change, wt” value in test [3] (15 min after compound addition) was 94; in test [3] (-0.5 min after compound addition), 104; in test [3] (-1 min after compound addition), 103; in test [3] (-1.5 min after compound addition), 97; in test [3] (-2 min after compound addition), 101; in test [3] (-2.5 min after compound addition), 97. The “average anisotropy change, wt” value in test [3] (-3 min after compound addition) came out at 98.
